According to patent US6984649B1, “Pyridine derivatives” (Bayer Aktiengesellschaft, priority 2000, dated 2006):
Structures can show the parent of a compound that is named as a salt.

Each compound was assayed on A549 human lung epithelium cell line (assay: RANTES production in response to TNF-α from A549 cells). Settings: A549 cells, 100 ng/ml TNF-α, read-out: Cellular activity grade (A549) (Cellular IC50).
Assay type: cell-based
In short: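 RANTES released into supernatant was measured by DELFIA-type sandwich immunoassay, Eu-labelled detection antibody, 340 nm excitation/615 nm emission, recombinant RANTES standard. Beforehand, cells seeded at 4×10^4/well received test compound (1% DMSO) for 1 h at 37 °C, followed by 24 h TNF-α (100 ng/ml) stimulation.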

With `N#Cc1c(C2CCCNC2)cc(-c2c(O)cccc2OCC2CCCO2)nc1N` (stereo not shown) [Example 2-81] as the compound, how does the IC50 read?
The IC50 was under 1000 nM.

Same assay, conditions: Homo sapiens, A549, A549 cells, 100 ng/ml TNF-α, read-out: Cellular activity grade (A549) (Cellular IC50)

With `N#Cc1cccc(COc2cccc(O)c2-c2cc(C3CCCNC3)c(C#N)c(N)n2)c1` (stereo not shown) [Example 2-15] as the compound, how does the IC50 read?
Its IC50 is under 1000 nM.

`N#Cc1ccc(COc2cccc(O)c2-c2cc(C3CCCNC3)c(C#N)c(N)n2)cc1` (stereo not shown) [Example 2-16] was tested. Which IC50 did it give?
The IC50 was under 1000 nM.

With `N#Cc1c(C2CCCNC2)cc(-c2c(O)cccc2OCc2ccccc2Cl)nc1N` (stereo not shown) [Example 2-17] as the compound, how does the IC50 read?
The IC50 was 1000 to 10000 nM.

`N#Cc1c(C2CCCNC2)cc(-c2c(O)cccc2OCc2cccc(Cl)c2)nc1N` (stereo not shown) [Example 2-18] was tested. Which IC50 did it give?
Its IC50 is 1000 to 10000 nM.

For `N#Cc1c(C2CCCNC2)cc(-c2c(O)cccc2OCc2ccc(Cl)cc2)nc1N` (stereo not shown) [Example 2-19], which IC50 is on record?
The IC50 was under 1000 nM.

`N#Cc1c(C2CCCNC2)cc(-c2c(O)cccc2OCc2c(Cl)cccc2Cl)nc1N` (stereo not shown) [Example 2-20] was tested. Which IC50 did it give?
The IC50 was 1000 to 10000 nM.

Which IC50 does the source give for `N#Cc1c(C2CCCNC2)cc(-c2c(O)cccc2OCc2ccc3ccccc3c2)nc1N` (stereo not shown) [Example 2-21] here?
The IC50 was under 1000 nM.

How did the IC50 turn out when `N#Cc1c(C2CCCNC2)cc(-c2c(O)cccc2OCCC2CCCCC2)nc1N` (stereo not shown) [Example 2-61] was run?
Its IC50 is under 1000 nM.

How did the IC50 turn out when `N#Cc1c(C2CCCNC2)cc(-c2c(O)cccc2OCC2CCC2)nc1N` (stereo not shown) [Example 2-62] was run?
The IC50 was under 1000 nM.

How did the IC50 turn out when `CC(C)CCCOc1cccc(O)c1-c1cc(C2CCCNC2)c(C#N)c(N)n1` (stereo not shown) [Example 2-63] was run?
The IC50 was under 1000 nM.

How did the IC50 turn out when `CCCCCCCOc1cccc(O)c1-c1cc(C2CCCNC2)c(C#N)c(N)n1` (stereo not shown) [Example 2-64] was run?
The IC50 was 1000 to 10000 nM.

How did the IC50 turn out when `N#Cc1c(C2CCCNC2)cc(-c2c(O)cccc2OCC2CC2)nc1N` (stereo not shown) [Example 2-65] was run?
Its IC50 is under 1000 nM.

How did the IC50 turn out when `CC(C)CCCOc1cccc(O)c1-c1cc(C2CCNCC2)c(C#N)c(N)n1` [Example 2-66] was run?
Its IC50 is under 1000 nM.

How did the IC50 turn out when `CCCOc1cccc(O)c1-c1cc(C2CCNCC2)c(C#N)c(N)n1` [Example 2-67] was run?
Its IC50 is under 1000 nM.

Which IC50 does the source give for `N#Cc1c(C2CCNCC2)cc(-c2c(O)cccc2OCC2CCC2)nc1N` [Example 2-68] here?
The IC50 was under 1000 nM.

For `CCCCCOc1cccc(O)c1-c1cc(C2CCNCC2)c(C#N)c(N)n1` [Example 2-69], which IC50 is on record?
Its IC50 is under 1000 nM.

How did the IC50 turn out when `N#Cc1c(C2CCNCC2)cc(-c2c(O)cccc2OCCC2CCCCC2)nc1N` [Example 2-70] was run?
The IC50 was under 1000 nM.

`CC(C)COc1cccc(O)c1-c1cc(C2CCNCC2)c(C#N)c(N)n1` [Example 2-71] was tested. Which IC50 did it give?
Its IC50 is under 1000 nM.

Which IC50 does the source give for `CCCCCCCOc1cccc(O)c1-c1cc(C2CCNCC2)c(C#N)c(N)n1` [Example 2-73] here?
Its IC50 is under 1000 nM.

With `C=CCOc1cccc(O)c1-c1cc(C2CCNCC2)c(C#N)c(N)n1` [Example 2-74] as the compound, how does the IC50 read?
Its IC50 is under 1000 nM.

For `CCOc1cccc(O)c1-c1cc(C2CCNCC2)c(C#N)c(N)n1` [Example 2-75], which IC50 is on record?
Its IC50 is under 1000 nM.

`CCCCCCOc1cccc(O)c1-c1cc(C2CCNCC2)c(C#N)c(N)n1` [Example 2-76] was tested. Which IC50 did it give?
The IC50 was under 1000 nM.

`CC(C)(C)C(=O)COc1cccc(O)c1-c1cc(C2CCCNC2)c(C#N)c(N)n1` (stereo not shown) [Example 2-77] was tested. Which IC50 did it give?
The IC50 was under 1000 nM.

`CC(C)(C)C(=O)COc1cccc(O)c1-c1cc(C2CCNCC2)c(C#N)c(N)n1` [Example 2-78] was tested. Which IC50 did it give?
The IC50 was under 1000 nM.

Which IC50 does the source give for `N#Cc1c(C2CCCNC2)cc(-c2c(O)cccc2OCC2CCCCO2)nc1N` (stereo not shown) [Example 2-79] here?
Its IC50 is under 1000 nM.

Which IC50 does the source give for `N#Cc1c(C2CCCNC2)cc(-c2c(O)cccc2OCC2CCCO2)nc1N` (stereo not shown) [Example 2-80] here?
The IC50 was under 1000 nM.

Which IC50 does the source give for `N#Cc1c(C2CCNCC2)cc(-c2c(O)cccc2OCC2CCCO2)nc1N` (stereo not shown) [Example 2-82] here?
The IC50 was under 1000 nM.

How did the IC50 turn out when `N#Cc1c(C2CCCNC2)cc(-c2c(O)cccc2OCCN2CCCCC2)nc1N` (stereo not shown) [Example 2-83] was run?
Its IC50 is 1000 to 10000 nM.

`N#Cc1c(C2CCCNC2)cc(-c2c(O)cccc2OCCN2CCOCC2)nc1N` (stereo not shown) [Example 2-84] was tested. Which IC50 did it give?
The IC50 was 1000 to 10000 nM.

For `CN(C)CCOc1cccc(O)c1-c1cc(C2CCCNC2)c(C#N)c(N)n1` (stereo not shown) [Example 2-85], which IC50 is on record?
The IC50 was 1000 to 10000 nM.

Which IC50 does the source give for `N#Cc1c(C2CCCNC2)cc(-c2c(O)cccc2OCCN2CCCCCC2)nc1N` (stereo not shown) [Example 2-86] here?
The IC50 was 1000 to 10000 nM.

Which IC50 does the source give for `N#Cc1c(C2CCCNC2)cc(-c2c(O)cccc2OCCN2CCCC2)nc1N` (stereo not shown) [Example 2-87] here?
Its IC50 is 1000 to 10000 nM.

For `CCOC(=O)N1Cc2c(C3CCCNC3)cc(-c3c(O)cccc3OCC3CC3)nc2NC1=O` (stereo not shown) [Example 24-2, ethyl 7-[2-(cyclopropylmethoxy)-6-hydroxyphenyl]-2-oxo-5-(3-piperidinyl)-1,4-dihydropyrido[2,3-d]pyrimidine-3(2H)-carboxylate hydrochloride], which IC50 is on record?
Its IC50 is under 1000 nM.

How did the IC50 turn out when `O=C1Nc2nc(-c3c(O)cccc3OCC3CC3)cc(C3CCCNC3)c2CN1C(=O)NC1CCCCC1` (stereo not shown) [Example 24-3, N-cyclohexyl-7-[2-(cyclopropylmethoxy)-6-hydroxyphenyl]-2-oxo-5-(3-piperidinyl)-1,4-dihydropyrido[2,3-d]pyrimidine-3(2H)-carboxamide hydrochloride] was run?
Its IC50 is under 1000 nM.

For `CS(=O)(=O)N1Cc2c(C3CCCNC3)cc(-c3c(O)cccc3OCC3CC3)nc2NC1=O` (stereo not shown) [Example 24-4, 7-[2-(cyclopropylmethoxy)-6-hydroxyphenyl]-3-(methylsulfonyl)-5-(3-piperidinyl)-3,4-dihydropyrido[2,3-d]pyrimidin-2(1H)-one hydrochloride], which IC50 is on record?
Its IC50 is under 1000 nM.

`CCOC(=O)c1cc2c(C3CCCNC3)cc(-c3ccccc3O)nc2[nH]c1=O` (stereo not shown) [Example 25-1, ethyl 7-(2-hydroxyphenyl)-2-oxo-5-(3-piperidinyl)-1,2-dihydro-1,8-naphthyridine-3-carboxylate hydrochloride] was tested. Which IC50 did it give?
Its IC50 is 1000 to 10000 nM.

`O=c1[nH]c2nc(-c3c(O)cccc3OCC3CC3)cc(C3CCCNC3)c2cc1F` (stereo not shown) [Example 25-2, 7-[2-(cyclopropylmethoxy)-6-hydroxyphenyl]-3-fluoro-5-(3-piperidinyl)-1,8-naphthyridin-2(1H)-one hydrochloride] was tested. Which IC50 did it give?
Its IC50 is under 1000 nM.

For `NC(=O)c1cc2c(C3CCNCC3)cc(-c3c(O)cccc3OCC3CC3)nc2[nH]c1=O` [Example 25-3, 7-[2-(cyclopropylmethoxy)-6-hydroxyphenyl]-2-oxo-5-(4-piperidinyl)-1,2-dihydro-1,8-naphthyridine-3-carboxamide hydrochloride], which IC50 is on record?
The IC50 was 1000 to 10000 nM.

How did the IC50 turn out when `O=c1ccc2c(C3CCCNC3)cc(-c3c(O)cccc3OCC3CC3)nc2[nH]1` (stereo not shown) [Example 25-4, 7-[2-(cyclopropylmethoxy)-6-hydroxyphenyl]-5-(3-piperidinyl)-1,8-naphthyridin-2(1H)-one hydrochloride] was run?
Its IC50 is under 1000 nM.

With `CCOC(=O)C1Cc2c(C3CCCNC3)cc(-c3ccccc3O)nc2NC1=O` (stereo not shown) [Example 26-1, ethyl 7-(2-hydroxyphenyl)-2-oxo-5-(3-piperidinyl)-1,2,3,4-tetrahydro-1,8-naphthyridine-3-carboxylate] as the compound, how does the IC50 read?
The IC50 was under 1000 nM.

With `NC(=O)C1Cc2c(C3CCNCC3)cc(-c3c(O)cccc3OCC3CC3)nc2NC1=O` (stereo not shown) [Example 26-2, 7-[2-(cyclopropylmethoxy)-6-hydroxyphenyl]-2-oxo-5-(4-piperidinyl)-1,2,3,4-tetrahydro-1,8-naphthyridine-3-carboxamide hydrochloride] as the compound, how does the IC50 read?
The IC50 was under 1000 nM.

`O=C1CCc2c(C3CCCNC3)cc(-c3ccccc3O)nc2N1` (stereo not shown) [Example 27-1, 7-(2-hydroxyphenyl)-5-(3-piperidinyl)-3,4-dihydro-1,8-naphthyridin-2(1H)-one hydrochloride] was tested. Which IC50 did it give?
The IC50 was under 1000 nM.
